Source: patent US20050020993A1, “Administration of therapeutic or diagnostic agents using interlabial pad” (priority 2001, published 2005)

Experiment: circulating plasma concentration of estradiol from an ILP system in HRT
Format: in vivo
Details: ILP (interlabial pad) system releasing 100 mg/day of estradiol as its 3-acetate ester; hormone replacement therapy
Text: In one embodiment, a kit is provided for administering the medication from the drug delivery device. The kit includes an interlabial pad, and a package such as a plastic vial or a plastic or foil container, for packaging the interlabial pad. The kit can also include directions for the use of the pad. The pad can contain a unit dose of the medication, for example an anti-infective, such as gynelotrimin. Another example is the delivery of estradiol to treat vaginal atrophy or for hormone replacement therapy (HRT). In HRT, and ILP system releasing […] of estradiol as its 3-acetate ester maintains a circulating plasma concentration of 300 pmol/L of the drug, which is within the clinically desirable range for HRT.

- circulating plasma concentration: 300 pmol/L
SMILES: C[C@]12CC[C@@H]3c4ccc(O)cc4CC[C@H]3[C@@H]1CC[C@@H]2O [estradiol]
